Laboratory results published in US20090246292A1, “ANTIMICROBIAL FORMULATIONS COMPRISING A QUINONE AND A COPPER SALT” (priority 2006, published 2009).
Where two headings read alike, the source gives them in different places. Values belong to the molecule of their own block, whether it stands above or below them.

Legend:
[1] = system: P. acnes NCTC 737; test: Synergy disc diffusion assay (SDDA), also supplemented
[2] = system: S. aureus ATCC 29213; test: Minimum bactericidal concentration (MBC) assay; assay type: cell-based, Staphylococcus aureus
Procedure: (§1) (b) Minimum Bactericidal Concentration (MBC) Assay
(§2) Following incubation they were examined visually for bacterial growth.

[3] = system: P. acnes NCTC 737; test: Disc diffusion assay (DDA), also supplemented;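 further: paper disc carrying compound placed on inoculated Wilkins-Chalgren Anaerobe agar pH 6.0, with lipid or NaCl supplement where listed, anaerobic 37 °C for 72 h, inhibition zone diameter read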
[4] = system: P. acnes NCTC 737; test: Minimum inhibitory concentration (MIC) assay; assay type: cell-based, Propionibacterium acnes
From the text: (§3) (a) Minimum Inhibitory Concentration (MIC) Assay
(§4) The culture media were as described above.
(§5) The assays included both negative (culture medium with no micro-organisms) and positive (culture medium plus diluting solvent plus micro-organism) controls.

[5] = system: S. aureus ATCC 29213; test: Synergy disc diffusion assay (SDDA), also supplemented;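 further: disc diffusion on Mueller-Hinton agar at pH 7.2, aerobic incubation at 37 °C lasting 19-20 h, two compounds assessed jointly for combined antimicrobial effect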
[6] = system: S. aureus ATCC 29213; test: Disc diffusion assay (DDA), also supplemented
[7] = system: P. acnes NCTC 737; test: Minimum bactericidal concentration (MBC) assay; assay type: cell-based, Propionibacterium acnes
Procedure: as §1, §2

[8] = system: S. aureus ATCC 29213; test: Minimum inhibitory concentration (MIC) assay; assay type: cell-based, Staphylococcus aureus
From the text: as §3, §4, §5

[9] = copper salt + TBHQ on one disc, 200 μg of each (silicate 62 μg), salt and lipid (1% (v/v) Tween 80)
[10] = copper salt + TBHQ on one disc, 200 μg of each (silicate 62 μg), unsupplemented
[11] = copper salt + TBHQ vs larger zone of either compound alone, unsupplemented
[12] = copper salt + TBHQ, salt and lipid (1% (v/v) Tween 80)
[13] = copper salt + TBHQ, unsupplemented
[14] = copper salt alone, S. aureus ATCC 29213
[15] = copper salt alone, 200 μg per disc (silicate 62 μg), 1% (v/v) Tween 80
[16] = copper salt alone, 200 μg per disc (silicate 62 μg), salt and 1% (v/v) Tween 80
[17] = copper salt alone, 200 μg per disc (silicate 62 μg), sodium chloride (100 mM)
[18] = copper salt alone, P. acnes NCTC 737
[19] = copper salt + TBHQ on one disc, 200 μg of each (silicate 62 μg), salt and serum supplements
[20] = copper salt + TBHQ, salt and serum supplements
[21] = copper salt alone, 200 μg per disc (silicate 62 μg), Tween 80 at 1% v/v
[22] = copper salt alone, 200 μg per disc (silicate 62 μg), salt and horse serum (5% v/v)

SMILES: [Cu+].[I-] [Copper (I) iodide]
- SL SDDA with TBHQ [1, 9]: 64.77 mm
- SDDA with TBHQ [1, 10]: 70.08 mm
- SDDA increase [1, 11]: 21.48 mm
- SL SDDA area increase [1, 12]: 96.51%
- SL SDDA increase [1, 12]: 18.56 mm
- SDDA area increase [1, 13]: 107.92%
- MBC [2, 14]: >250 µg/mL
- DDA + lipid [3, 15]: 34.64 mm
- DDA + salt & lipid [3, 16]: 46.20 mm
- DDA + salt [3, 17]: 43.92 mm
- MIC [4, 18]: 7.8 µg/mL
- MIC/MBC ratio [4, 18]: 0.25
- SS SDDA with TBHQ [5, 19]: 45.26 mm
- SDDA with TBHQ [5, 10]: 52.74 mm
- SDDA increase [5, 11]: 12.32 mm
- SS SDDA area increase [5, 20]: 7.37%
- SS SDDA increase [5, 20]: 1.58 mm
- SDDA area increase [5, 13]: 70.25%
- DDA + lipid [6, 21]: 0 mm
- DDA + salt & serum [6, 22]: 0 mm
- DDA + salt [6, 17]: 0 mm
- MBC [7, 18]: 31.25 µg/mL
- MIC [8, 14]: >250 µg/mL

SMILES: CC(=O)[O-].CC(=O)[O-].[Cu+2] [Copper (II) acetate]
- SDDA area increase [1]: 56%
- SDDA increase [1]: 13.35 mm
- SDDA with TBHQ [1]: 66.96 mm
- SL SDDA area increase [1]: 64.92%
- SL SDDA increase [1]: 14.08 mm
- SL SDDA with TBHQ [1]: 63.62 mm
- MBC [2]: >250 µg/mL
- DDA [3]: 53.61 mm
- DDA + lipid [3]: 42.06 mm
- DDA + salt [3]: 48.25 mm
- DDA + salt & lipid [3]: 49.54 mm
- MIC [4]: 7.8 µg/mL
- MIC/MBC ratio [4]: 0.25
- SDDA area increase [5]: 1.59%
- SDDA increase [5]: 0.32 mm
- SDDA with TBHQ [5]: 40.74 mm
- SS SDDA area increase [5]: −57.34%
- SS SDDA increase [5]: −15.15 mm
- SS SDDA with TBHQ [5]: 28.53 mm
- DDA [6]: 0 mm
- DDA + lipid [6]: 0 mm
- DDA + salt [6]: 0 mm
- DDA + salt & serum [6]: 0 mm
- MBC [7]: 31.25 µg/mL
- MIC [8]: >250 µg/mL

SMILES: [Cl-].[Cu+2].[Cu+2].[OH-].[OH-].[OH-] [Copper (II) oxychloride]
- SL SDDA with TBHQ [1, 9]: 54.02 mm
- SDDA with TBHQ [1, 10]: 59.45 mm
- SDDA increase [1, 11]: 8.24 mm
- SL SDDA area increase [1, 12]: 7.76%
- SL SDDA increase [1, 12]: 1.98 mm
- SDDA area increase [1, 13]: 34.77%
- MBC [2, 14]: >250 µg/mL
- DDA [3]: 51.21 mm
- DDA + lipid [3, 15]: 51.65 mm
- DDA + salt & lipid [3, 16]: 52.04 mm
- DDA + salt [3, 17]: 54.47 mm
- MIC [4, 18]: 0.98 µg/mL
- MIC/MBC ratio [4, 18]: 0.06
- SS SDDA with TBHQ [5, 19]: 43.89 mm
- SDDA with TBHQ [5, 10]: 52.63 mm
- SDDA increase [5, 11]: 12.21 mm
- SS SDDA area increase [5, 20]: 0.96%
- SS SDDA increase [5, 20]: 0.21 mm
- SDDA area increase [5, 13]: 69.54%
- DDA [6]: 0 mm
- DDA + lipid [6, 21]: 0 mm
- DDA + salt & serum [6, 22]: 0 mm
- DDA + salt [6, 17]: 0 mm
- MBC [7, 18]: 15.6 µg/mL
- MIC [8, 14]: >250 µg/mL

- MIC [4, 18]: 7.8 µg/mL
- MIC/MBC ratio [4, 18]: 0.125
- MIC [8, 14]: >250 µg/mL
SMILES: [Br][Cu][Br] [Copper (II) bromide]
- SL SDDA with TBHQ [1, 9]: 65.39 mm
- SDDA with TBHQ [1, 10]: 66.3 mm
- SDDA increase [1, 11]: 11.47 mm
- SL SDDA area increase [1, 12]: 76.46%
- SL SDDA increase [1, 12]: 16.17 mm
- SDDA area increase [1, 13]: 46.18%
- MBC [2, 14]: >250 µg/mL
- DDA + lipid [3, 15]: 42.37 mm
- DDA + salt & lipid [3, 16]: 49.23 mm
- DDA + salt [3, 17]: 47.94 mm
- SS SDDA with TBHQ [5, 19]: 44.42 mm
- SDDA with TBHQ [5, 10]: 59.26 mm
- SDDA increase [5, 11]: 18.84 mm
- SS SDDA area increase [5, 20]: 3.42%
- SS SDDA increase [5, 20]: 0.74 mm
- SDDA area increase [5, 13]: 114.95%
- DDA + lipid [6, 21]: 0 mm
- DDA + salt & serum [6, 22]: 0 mm
- DDA + salt [6, 17]: 0 mm
- MBC [7, 18]: 62.5 µg/mL
